The structures appear in SMILES notation.

For 24 compounds, IC50 results are on record in patent US20080227797A1, “Pyridopyrimidine Derivatives as Pde4 Inhibitors for the Treatment of Inflammatory and Immune Diseases” (ASTRAZENECA AB, priority 2005, published 2008).

recombinant Human Phosphodiesterase B2 (PDE4B2), sequence (Q07343 1-564 isoform Q07343-2): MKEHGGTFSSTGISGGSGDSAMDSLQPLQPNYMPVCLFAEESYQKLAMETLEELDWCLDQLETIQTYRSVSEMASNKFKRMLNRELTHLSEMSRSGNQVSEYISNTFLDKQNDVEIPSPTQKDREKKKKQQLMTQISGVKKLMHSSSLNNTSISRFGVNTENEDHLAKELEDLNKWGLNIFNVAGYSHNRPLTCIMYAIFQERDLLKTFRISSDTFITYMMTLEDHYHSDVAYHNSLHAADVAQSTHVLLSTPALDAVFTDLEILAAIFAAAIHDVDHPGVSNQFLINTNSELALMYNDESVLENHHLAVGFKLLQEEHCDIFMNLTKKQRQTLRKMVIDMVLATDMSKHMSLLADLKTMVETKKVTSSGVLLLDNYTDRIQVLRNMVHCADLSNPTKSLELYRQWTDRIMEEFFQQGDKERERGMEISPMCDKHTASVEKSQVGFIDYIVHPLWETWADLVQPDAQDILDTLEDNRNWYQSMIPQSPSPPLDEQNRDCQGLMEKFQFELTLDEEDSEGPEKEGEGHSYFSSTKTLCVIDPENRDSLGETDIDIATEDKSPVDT

For the assay, the target named is recombinant Human Phosphodiesterase B2 (PDE4B2) (Homo sapiens, UniProt Q07343). Put plainly: Human Phosphodiesterase B2 Alpha Screen Assay. Particulars: cAMP substrate, Alpha Screen cAMP kit, 60 minutes at room temperature. Type of assay: biochemical. As for the experimental part:
Human Phosphodiesterase B2 Alpha Screen Assay
The assay uses recombinant Human Phosphodiesterase B2 (PDE4B2) produced in house (PrAZL0133), stored at −20° C. The substrate uses cAMP, part of the Alpha Screen cAMP kit (Perkin Elmer, Cat# 6760625M), stored at 4° C. The Alpha Screen kit also includes biotinylated cAMP, acceptor and donor beads.
The assay additions were as follows: Test compounds and controls were added to white 384-well flat-bottom plates (Greiner, Cat# 781075), 0.2 μl in 100% DMSO, followed by 10 μl PDE4B2 in reaction buffer. The reaction buffer constitution was: 50 mM Tris (pH 7.5), 8.3 mM MgCl2, 1.7 mM EGTA and 0.01% (w/v) Brij®35. The enzyme and the compounds were incubated at room temperature for 15 minutes. Then 10 μl cAMP in reaction buffer was added. The assay was stopped after 60 minutes incubation at room temperature by adding 10 μl acceptor beads in detection buffer with 40 mM EDTA. The detection buffer constitution was: 5 mM Tris (pH 7.5), 0.1% (w/v) BSA and 0.1% (v/v) Tween 20. This addition followed by an addition of 10 μl donor beads in detection buffer, with biotinylated cAMP. The plates were then incubated, dark at room temperature, for 5 hours followed by measurement on a Fusion™-α analyser. IC50 values (presented in Table 1) were determined using Xlfit curve fitting using model 205.
A word on the IC50: it is the concentration needed to halve the response being measured. As for `O=C(N[C@H]1CC[C@@H](n2c(=O)c3cc(F)cnc3n(-c3ccc(F)c(F)c3)c2=O)CC1)C(O)c1ccccc1` (relative stereo) [Example 2, N-{cis-4-[1-(3,4-difluorophenyl)-6-fluoro-2,4-dioxo-1,4-dihydropyrido[2,3-d]pyrimidin-3(2H)-yl]cyclohexyl}-2-hydroxy-2-phenylacetamide], the IC50 stood at 0.9 nM.

With `Cc1ccc(O)c(C(=O)N[C@H]2CC[C@@H](N3C(=O)c4cc(F)cnc4N(c4ccc(F)c(F)c4)[S+]3[O-])CC2)c1` (relative stereo) [Example 46, N-{cis-4-[1-(3,4-Difluorophenyl)-6-fluoro-2-oxido-4-oxo-1,4-dihydro-3H-pyrido[2,3-c][1,2,6]thiadiazin-3-yl]cyclohexyl}-2-hydroxy-5-methylbenzamide], the half-inhibitory concentration (IC50) amounted to 129 nM.

For the compound `CN1CCCC(C(=O)N[C@H]2CC[C@@H](n3c(=O)c4cc(F)cnc4n(-c4ccc(F)c(F)c4)c3=O)CC2)C1` (relative stereo) [Example 99, N-{cis-4-[1-(3,4-difluorophenyl)-6-fluoro-2,4-dioxo-1,4-dihydropyrido[2,3-d]pyrimidin-3(2H)-yl]cyclohexyl}-1-methylpiperidine-3-carboxamide], the IC50 was 6.01 nM.

`O=C(N[C@H]1CC[C@@H](n2c(=O)c3cc(F)cnc3n(-c3ccc(F)c(F)c3)c2=O)CC1)c1cc(CO)ccc1O` [Example 1, N-{cis-4-[1-(3,4-difluorophenyl)-6-fluoro-2,4-dioxo-1,4-dihydropyrido[2,3-d]pyrimidin-3(2H)-yl]cyclohexyl}-2-hydroxy-5-(hydroxymethyl)benzamide]: the IC50 is 4.9 nM.

Turning to `O=C(CO)N[C@H]1CC[C@@H](n2c(=O)c3cc(F)cnc3n(-c3ccc(F)c(F)c3)c2=O)CC1` [Example 3, N-{cis-4-[1-(3,4-difluorophenyl)-6-fluoro-2,4-dioxo-1,4-dihydropyrido[2,3-d]pyrimidin-3(2H)-yl]cyclohexyl}-2-hydroxyacetamide], the IC50 worked out at 16.3 nM.

Consider `O=C(N[C@H]1CC[C@@H](n2c(=O)c3cc(F)cnc3n(-c3ccc(F)c(F)c3)c2=O)CC1)c1cc(Cl)ccc1O` [Example 4, 5-chloro-N-{cis-4-[1-(3,4-difluorophenyl)-6-fluoro-2,4-dioxo-1,4-dihydropyrido[2,3-d]pyrimidin-3(2H)-yl]cyclohexyl}-2-hydroxybenzamide], for which the 50% inhibitory concentration (IC50) is 5 nM.

As to `O=C(N[C@H]1CC[C@@H](n2c(=O)c3cc(F)cnc3n(-c3ccc(F)c(F)c3)c2=O)CC1)c1cccc(O)c1` [Example 5, N-{cis-4-[1-(3,4-difluorophenyl)-6-fluoro-2,4-dioxo-1,4-dihydropyrido[2,3-d]pyrimidin-3(2H)-yl]cyclohexyl}-3-hydroxybenzamide], the 50% inhibitory concentration (IC50) amounted to 2.2 nM.

Turning to `O=C(N[C@H]1CC[C@@H](n2c(=O)c3cc(F)cnc3n(-c3ccc(F)c(F)c3)c2=O)CC1)c1ccc(O)cc1` [Example 6, N-{cis-4-[1-(3,4-difluorophenyl)-6-fluoro-2,4-dioxo-1,4-dihydropyrido[2,3-d]pyrimidin-3(2H)-yl]cyclohexyl}-4-hydroxybenzamide], the IC50 was determined as 2.3 nM.

As to `COC(=O)c1ccccc1C(=O)N[C@H]1CC[C@@H](n2c(=O)c3cc(F)cnc3n(-c3ccc(F)c(F)c3)c2=O)CC1` [Example 7, methyl 2-[({cis-4-[1-(3,4-difluorophenyl)-6-fluoro-2,4-dioxo-1,4-dihydropyrido[2,3-d]pyrimidin-3(2H)-yl]cyclohexyl}amino)carbonyl]benzoate], the IC50 came out at 3 nM.

`O=C(Cc1ccc(O)cc1)N[C@H]1CC[C@@H](n2c(=O)c3cc(F)cnc3n(-c3ccc(F)c(F)c3)c2=O)CC1` [Example 8, N-{cis-4-[1-(3,4-difluorophenyl)-6-fluoro-2,4-dioxo-1,4-dihydropyrido[2,3-d]pyrimidin-3(2H)-yl]cyclohexyl}-2-(4-hydroxyphenyl)acetamide]: the IC50 was found to be 2.2 nM.

Consider `Cc1ccc(C(=O)N[C@H]2CC[C@@H](n3c(=O)c4cc(F)cnc4n(-c4ccc(F)c(F)c4)c3=O)CC2)c(O)c1` [Example 9, N-{cis-4-[1-(3,4-difluorophenyl)-6-fluoro-2,4-dioxo-1,4-dihydropyrido[2,3-d]pyrimidin-3(2H)-yl]cyclohexyl}-2-hydroxy-4-methylbenzamide], for which the IC50 was determined as 1.3 nM.

For `O=C(N[C@H]1CC[C@@H](n2c(=O)c3cc(F)cnc3n(-c3ccc(F)c(F)c3)c2=O)CC1)c1ccccc1O` [Example 10, N-{cis-4-[1-(3,4-difluorophenyl)-6-fluoro-2,4-dioxo-1,4-dihydropyrido[2,3-d]pyrimidin-3(2H)-yl]cyclohexyl}-2-hydroxybenzamide], the IC50 worked out at 2.6 nM.

In the case of `O=C(N[C@H]1CC[C@@H](n2c(=O)c3cc(F)cnc3n(-c3ccc(F)c(F)c3)c2=O)CC1)c1ncccc1O` [Example 11, N-{cis-4-[1-(3,4-difluorophenyl)-6-fluoro-2,4-dioxo-1,4-dihydropyrido[2,3-d]pyrimidin-3(2H)-yl]cyclohexyl}-3-hydroxypyridine-2-carboxamide], the 50% inhibitory concentration (IC50) was determined as 3.4 nM.

With `O=C(N[C@H]1CC[C@@H](n2c(=O)c3cc(F)cnc3n(-c3ccc(F)c(F)c3)c2=O)CC1)c1ccc(O)c(Cl)c1` [Example 12, 3-chloro-N-{cis-4-[1-(3,4-difluorophenyl)-6-fluoro-2,4-dioxo-1,4-dihydropyrido[2,3-d]pyrimidin-3(2H)-yl]cyclohexyl}-4-hydroxybenzamide], the 50% inhibitory concentration (IC50) was found to be 2.2 nM.

For `Cc1c(O)cccc1C(=O)N[C@H]1CC[C@@H](n2c(=O)c3cc(F)cnc3n(-c3ccc(F)c(F)c3)c2=O)CC1` [Example 13, N-{cis-4-[1-(3,4-difluorophenyl)-6-fluoro-2,4-dioxo-1,4-dihydropyrido[2,3-d]pyrimidin-3(2H)-yl]cyclohexyl}-3-hydroxy-2-methylbenzamide], the IC50 was 3.2 nM.

For `COc1cc(C(=O)N[C@H]2CC[C@@H](n3c(=O)c4cc(F)cnc4n(-c4ccc(F)c(F)c4)c3=O)CC2)ccc1O` [Example 14, N-{cis-4-[1-(3,4-difluorophenyl)-6-fluoro-2,4-dioxo-1,4-dihydropyrido[2,3-d]pyrimidin-3(2H)-yl]cyclohexyl}-4-hydroxy-3-methoxybenzamide], the IC50 was 1.5 nM.

For `Cc1ccc(C(=O)N[C@H]2CC[C@@H](n3c(=O)c4cc(F)cnc4n(-c4ccc(F)c(F)c4)c3=O)CC2)cc1O` [Example 15, N-{cis-4-[1-(3,4-difluorophenyl)-6-fluoro-2,4-dioxo-1,4-dihydropyrido[2,3-d]pyrimidin-3(2H)-yl]cyclohexyl}-3-hydroxy-4-methylbenzamide], the IC50 was found to be 1.3 nM.

For `COc1cccc(O)c1C(=O)N[C@H]1CC[C@@H](n2c(=O)c3cc(F)cnc3n(-c3ccc(F)c(F)c3)c2=O)CC1` [Example 16, N-{cis-4-[1-(3,4-difluorophenyl)-6-fluoro-2,4-dioxo-1,4-dihydropyrido[2,3-d]pyrimidin-3(2H)-yl]cyclohexyl}-2-hydroxy-6-methoxybenzamide], the concentration for half-maximal inhibition (IC50) amounted to 2.1 nM.

Turning to `COc1cccc(C(=O)N[C@H]2CC[C@@H](n3c(=O)c4cc(F)cnc4n(-c4ccc(F)c(F)c4)c3=O)CC2)c1O` [Example 17, N-{cis-4-[1-(3,4-difluorophenyl)-6-fluoro-2,4-dioxo-1,4-dihydropyrido[2,3-d]pyrimidin-3(2H)-yl]cyclohexyl}-2-hydroxy-3-methoxybenzamide], the IC50 came out at 1.8 nM.

Consider `O=C(N[C@H]1CC[C@@H](n2c(=O)c3cc(F)cnc3n(-c3ccc(F)c(F)c3)c2=O)CC1)c1ccc(Cl)cc1O` [Example 18, 4-chloro-N-{cis-4-[1-(3,4-difluorophenyl)-6-fluoro-2,4-dioxo-1,4-dihydropyrido[2,3-d]pyrimidin-3(2H)-yl]cyclohexyl}-2-hydroxybenzamide], for which the concentration for half-maximal inhibition (IC50) was determined as 2.7 nM.

With `COc1ccc(C(=O)N[C@H]2CC[C@@H](n3c(=O)c4cc(F)cnc4n(-c4ccc(F)c(F)c4)c3=O)CC2)c(O)c1` [Example 19, N-{cis-4-[1-(3,4-difluorophenyl)-6-fluoro-2,4-dioxo-1,4-dihydropyrido[2,3-d]pyrimidin-3(2H)-yl]cyclohexyl}-2-hydroxy-4-methoxybenzamide], the IC50 was 2 nM.

Consider `O=C(N[C@H]1CC[C@@H](n2c(=O)c3cc(F)cnc3n(-c3ccc(F)c(F)c3)c2=O)CC1)c1cc(F)ccc1O` [Example 20, N-{cis-4-[1-(3,4-difluorophenyl)-6-fluoro-2,4-dioxo-1,4-dihydropyrido[2,3-d]pyrimidin-3(2H)-yl]cyclohexyl}-5-fluoro-2-hydroxybenzamide], for which the concentration for half-maximal inhibition (IC50) worked out at 3.6 nM.

For `CC(C)C[C@H](O)C(=O)N[C@H]1CC[C@@H](n2c(=O)c3cc(F)cnc3n(-c3ccc(F)c(F)c3)c2=O)CC1` [Example 21, (2S)-N-{cis-4-[1-(3,4-difluorophenyl)-6-fluoro-2,4-dioxo-1,4-dihydropyrido[2,3-d]pyrimidin-3(2H)-yl]cyclohexyl}-2-hydroxy-4-methylpentanamide], the IC50 worked out at 3.6 nM.

On to `O=C(N[C@H]1CC[C@@H](n2c(=O)c3cc(F)cnc3n(-c3ccc(F)c(F)c3)c2=O)CC1)[C@H](O)C1CCCCC1` [Example 22, (2R)-2-cyclohexyl-N-{cis-4-[1-(3,4-difluorophenyl)-6-fluoro-2,4-dioxo-1,4-dihydropyrido[2,3-d]pyrimidin-3(2H)-yl]cyclohexyl}-2-hydroxyacetamide], for which the half-inhibitory concentration (IC50) was 1 nM.
